# Legend:
# OC cell lines = test: Cell migration assay (Boyden chamber); type: cell-based; conditions: different OC cell lines, P<0.05
# Method: (§1) To determine whether proliferation inhibition was the dominant factor driving the reduction in OC viability seen with AzP treatment, we used propidium iodide and annexin-FITC stains with flow cytometry to measure the distribution of cell cycle phases after treatment. […] Furthermore, in the Boyden chamber assay for cell migration, SU093 inhibited cell migration by 40-46% (1 μM, P<0.05) in different OC cell lines.
# Cell migration assay: 1×10^5 cells were plated in 60 mm cell culture dishes (Corning-Falcon, #353002) and incubated for 24 h. […] Cells were trypsinized and collected in a conical tube for each plate. Pellets of cells were resuspended, and live cells were counted using a hemocytometer and trypan blue staining. 40,000 live cells were then plated in the upper chamber of 8-micron transwell (Corning-Falcon, #353097) with 0.2% FBS media. The lower chamber contained 10% FBS complete media. […] Each transwell was washed, swiped for non-migrated cells and fixed using 75% ethanol. Fixed transwells were stained with 0.5% crystal violet for 1 h. De-stained transwell membranes were cut and mounted on a slide using DPX mounting media. Migrated cells were counted under the microscope at 100× magnification.
# FIG. 1A) Lead optimization of SU093 to obtain SU056. […] FIG. 1G) Effects of SU093 and SU056 on apoptotic cell death analyzed by Annexin-FITC staining. […]
# YB-1 and MDR1 expression = test: Immunohistochemistry of ID8 tumor xenograft samples; type: in vivo, mice; conditions: SU056 20 mg/kg
# Method: Out of six targets identified, we selected proteins whose thermal shift is above 5° in the presence of SU056 for further study of protein expression after treatment. […] To study the in vivo effects of SU056 treatment, we analyzed ID8 tumor xenograft samples via immunohistochemistry (IHC). […] To identify the broader effects of SU056 on YB-1 and its downstream protein/activity in different ovarian cancer cell lines, we selected six different cell lines and treated them with SU056 (2.5 μM) for 12 h. Cells were analyzed for YB-1 and CD44 expression and Multidrug resistance 1 (MDR1, ABC pump mediated efflux). […] Finally, we tested the time kinetics and dose-dependent effects of SU056 on YB-1 expression. OVCAR4, OVCAR8, and SKOV3 cells were treated with SU056 (1, 2.5, and 5 μM) for 3, 6, 12, and 24 h and YB-1 expression was measured using YB-1 ELISA. […] 5 μM treatment for 24 h inhibited YB-1 completely (100%) in all three OC cells (FIG. 4E).
# Immunohistochemistry: Fixed tumors and organs were embedded in paraffin. Each block was cut in 5 μm sections and fixed on poly-L lysine-coated slides. […]
# FIGS. 4A-4E: SU056 inhibits YB-1. […] FIG. 4C) Respective OC cells were treated with 2.5 μM SU056 for 12 h and YB-1 & CD44 expression and multidrug resistance activity was measured as described in the ‘method’ section. The % inhibition was calculated and compared to the control for the respective cell line. […]
# OVCAR-8 and ID8 cells = test: Clonogenic assay; type: cell-based
# Method: We tested the relationship between AzPs dose and the viability of human ovarian cancer cell lines and the ID8 murine ovarian cancer cell line.
# Clonogenic assay: 300 suspended OC cells were plated in each well of 12 well plates (Corning-Costar, #3598) and incubated for 24 h for attachment. The media was replaced after 24 h with media containing a respective concentration of the test compound and incubated for 5-8 days until visible colonies appeared in vehicle-treated wells. Cells were then washed and fixed with 2% paraformaldehyde, followed by washing and staining with 0.5% Crystal violet for 1 h. Cells were de-stained using DI water and allowed to dry. Colonies were counted under the microscope at 100× magnification.
# (§2) FIG. 1A) Lead optimization of SU093 to obtain SU056. FIG. 1B) IC50 values of SU093 and SU056 on various ovarian cancer cells. Clonogenic survival of OC cells treated with SU093 or SU056. […] FIG. 1C) Representative colony formation from respective wells. FIG. 1D) Number of colonies formed after SU093 and SU056 treatment. […] FIG. 1F) Cell cycle distribution of propidium iodide (PI)-stained OVCAR8, SKOV3, and ID8 cells. […] FIG. 1G) Effects of SU093 and SU056 on apoptotic cell death analyzed by Annexin-FITC staining. […] FIG. 1H) Cell migration assay.
# [1] = test system: OVCAR8, SKOV3, and ID8 cells; test: Cell cycle analysis (propidium iodide, flow cytometry); type: cell-based
# Method: as §1
# Cell cycle analysis: 30,000 OC cells were plated in each well of 12 well plates and incubated for 24 h. […] Both live and dead cells were collected via trypsinization and cell pellets were fixed with 70% ethanol. Fixed cells were stained using propidium iodide (PI) cocktail (80 μg/mL RNase A and 50 μg/mL PI in saponin-EDTA solution) and incubated at 4° C. overnight. Each sample was analyzed using a Guava® easyCyte™ Flow Cytometer (Millipore, Burlington, MA). FlowJo software calculated the % cells in each cell cycle phase.
# as §2
# [2] = test system: protein translation associated molecules; test: Western blot of translation associated molecules in TNBC cells; type: cell-based; conditions: 12 and 24 hr; MDA-MB-231, MDA-MB-468, SUM 159
# Method: FIGS. 12A-12C. TNBC cells were treated for 12 and 24 hr and total cell lysate were prepared. SDS-PAGE and western blot analyses were performed for translation associated molecules. Beta-actin were probed to ensure equal protein loading.
# OVCAR8 YBX1-shRNA1 cells = test: Cell viability assay, transduced OVCAR8 cells; conditions: Homo sapiens, OVCAR-8, read-out: IC50 (cell viability)
# Description: To check the dependency of SU056 activity on YB-1 expression, we also tested OVCAR8 cells transfected with YB-1 knockdown using transduction of lentiviral shRNA vectors. […] Furthermore, we also performed a cell viability assay using knockdown cells to calculate IC50 values.
# Scrambled control (SC), YBX1 knockdown (1 & 2) and mCherry-YBX1 OVCAR8 cell lines were created using lentiviral based transduction and selected using puromycin resistance followed by cell shorting.
# Cell viability assay: Cell viability was assessed using the standard MTT assay protocol. In brief, 5,000 cells were plated in each well of 96 well plates (Corning-Costar, #3598) and allowed to attach for 24 h. Cells were treated with a respective concentration of compounds for respective time points. A stock solution of each compound was prepared in DMSO. DMSO concentration was kept constant and maintained below 0.1%. After each incubation, 50 μL of 0.5 mg/ml MTT solution prepared in 1×PBS was added to each well followed by 1 h incubation at 37° C. and 5% CO2. MTT solution and media were then removed, and MTT formazan crystals were dissolved in 100 μL of DMSO per well. Absorbance at 570 nm for each well was recorded using a multimode plate reader to quantitate MTT crystallization. Each absorbance value was normalized to controls and converted into percent cell viability. […]
smiles,measurement,setting,value
"O=C1OCC2=C1C(c1cccc(F)c1)c1cc3c(cc1N2CCO)OCO3 (stereo not shown) [SU056, 9-(3-fluorophenyl)-5-(2-hydroxyethyl)-6,9-dihydro-[1,3]dioxolo[4,5-g]furo[3,4-b]quinolin-8(5H)-one]",inhibition at 1 µM,OC cell lines,78 to 87%
same,YB-1 and MDR1 expression in tumors (IHC),YB-1 and MDR1 expression,strongly inhibits YB-1 expression followed by downregulation of downstream MDR1
same,OC colony formation,OVCAR-8 and ID8 cells,decreased OC colony formation in a dose-dependent and significant manner
same,cell cycle distribution,"[1]; 12 h treatment, PI-stained OVCAR8, SKOV3, ID8",G1 phase arrest
same,"cell cycle arrest, comparison of SU056 with SU093",[1]; OC lines,greater cell cycle arrest than SU093
same,protein translation associated molecules (western blot),[2],inhibited the protein translation associated molecules
same,IC50,OVCAR8 YBX1-shRNA1 cells,15.8 µM

# — patent publication US20240016784A1, “Y BOX BINDING PROTEIN 1 INHIBITORS” (Oregon Health & Science University, priority 2020, published 2024)
